Laboratory results published in PMC6063448, “Antimicrobial activity of linear lipopeptides derived from BP100 towards plant pathogens” (PLoS ONE, 2018).

What was measured:
[1] = system: defense-related genes in tomato plants; assay: Induction of defense gene expression of tomato plants (RT-qPCR); type: in vivo, tomato cv. Rio Grande; details: for BCB gene expression, fold induction / ERT3 gene expression, fold induction / GluA gene expression, fold induction / Harp gene expression, fold induction / LOX gene expression, fold induction / Osm2 gene expression, fold induction / PPO gene expression, fold induction / PR1 gene expression, fold induction / PinII gene expression, fold induction / Sub1 gene expression, fold induction / Tas14 gene expression, fold induction: tomato leaves sprayed, 24 h, peptides and flg15 125 μM, JA 2.5 mM, ASM 300 mg/L, ΔΔCt relative to actin, above 2 = overexpression; for Defense gene expression in tomato plants (genes overexpressed): significant overexpression (REST2009)
Description: Seeds of tomato cv. Rio Grande plants were sown in hydroponic seed plugs (rockwool), germinated and grown under controlled greenhouse conditions (25 ± 2°C, 16 h light / 15 ± 2°C, 8 h dark, and 60% RH). Two-week old seedlings (two cotyledons) were transplanted into rockwool plugs (7.5×7.5×6.5 cm, Grodan Iberica). The experimental design consisted of three replicates of three plants per treatment. After two weeks, tomato leaves were sprayed with aqueous solutions of BP100, 9 selected derivatives and flg15 at 125 μM, jasmonic acid at 2.5 mM (Sigma-Aldrich, Sant Louis, Missouri, UE), and acybenzolar-S-methyl at 300 mg/L (Syngenta, Basel, Switzerland), until the run-off point. Water-sprayed plants were used as not treated controls. Twenty-four hours after product application leaf samples were collected and processed to extract RNA for RT-qPCR assays. Plant material was ground to a fine powder in liquid nitrogen with the Tissuelyzer II system (Qiagen). Total RNA was extracted from leaves using PureLink Plant RNA Reagent (Invitrogen, Life Technologies) according to the manufacturer’s manual. The RNA was solubilized in RNAse free water and was routinely subjected to DNAse treatment (Ambion® Turbo DNA-free™, Life Technologies) to remove any contaminant DNA. In each step, the RNA was quantified using a Nanodrop N-2000 spectrophotometer, and its integrity verified by denaturing agarose gel electrophoresis. First-strand of complementary DNA (cDNA) was generated from leave RNA using reverse transcriptase (High Capacity cDNA Reverse Transcription Kit, Invitrogen) according to the manufacturer’s manual.
To test gene defense induction in the treated tomato plants, a qPCR assay was performed. Quantitative PCR was carried out in a fluorometric thermal cycler (qPCR Quant Studio 5, Applied Biosystems) by using a Mix SYBR®Green PCR Master Mix (Applied Biosystems). The total reaction volume of this PCR reaction was 20 μL and the reaction mixture was 1 μL of each primer set at the adequate concentration, 10 μL of MixSyber Green, 6 μL of distilled water and 2 μL of cDNA. Melting curve analysis was performed after amplification to verify amplification specificity. A constitutive gene (actin gene) was used as reference control, and the following genes implicated in plant defense response were analyzed: Pathogenesis-related protein-1 (PR1), Harpin (Harp), Polyphenol oxidase (PPO), Subtilisin-like protease (Sub1), Blue copper binding-protein (BCB), Osmotin (Osm2), Acidic β-1,3 endoglucanase (GluA), Lypoxigenase (LOX), Protein inhibitor II (PinII), Dehydrin (Tas14) and Ethylene response transcription factor (ERT3). […] For each gene system, the concentration of the primer pair was optimized. The primer concentration was 100 nM for all the genes except for the GluA, Harp, PR1 and actin genes which optimized concentration was 300 nM. A calibration curve was prepared by cloning the corresponding DNA in the pSpark cloning vector (Canvax, Córdoba, Spain) according to the manufacturer instructions, which was then used to transform E. coli DH5α by standard procedures. The number of plasmid copies were quantified after purification from E. coli (QIAGEN Iberia, S. L., Madrid, Spain), and appropriate dilutions were prepared to obtain the standard curve. […] Relative quantification of gene expression was done using the ΔΔCt method. Each biological repetition treatment was analyzed in duplicate. The mean of the Ct values obtained were used to estimate the fold change value of the endogenous reference gene (actin) and the target plant defense genes.

[2] = system: Fusarium oxysporum f. sp. lycopersici FOL 3 race 2; assay: MIC, antifungal growth inhibition in microtiter plates (PDB); type: cell-based; details: Fo, 22°C, seven days, OD 600 nm, lowest concentration with no growth, given as interval of tested concentrations, three replicates, experiment repeated twice
Outline: (§1)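 Conidial suspensions (10^3 conidia/mL P. expansum, 10^4 F. oxysporum) incubated with peptides in PDB with 0.003% chloramphenicol at 22 °C for seven days, OD600 read every 2 h. MIC is the lowest concentration with no growth at the end; triplicates, experiment repeated twice.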

[3] = system: Penicillium expansum EPS26; assay: as above; type: cell-based; details: Pe, 22°C, seven days, OD 600 nm, lowest concentration with no growth, given as interval of tested concentrations, three replicates, experiment repeated twice
Outline: as §1

| SMILES | BCB gene expression, fold induction [1] | ERT3 gene expression, fold induction [1] | GluA gene expression, fold induction [1] | Harp gene expression, fold induction [1] | LOX gene expression, fold induction [1] | Osm2 gene expression, fold induction [1] | PPO gene expression, fold induction [1] | PR1 gene expression, fold induction [1] | PinII gene expression, fold induction [1] | Sub1 gene expression, fold induction [1] | Tas14 gene expression, fold induction [1] | MIC [2] [µM] | MIC [3] [µM] | Defense gene expression in tomato plants (genes overexpressed) ([1]; treatment at 125 μM) | Number of defense-related genes significantly induced ([1]; treatment at 125 μM) |
| --- | --- | --- | --- | --- | --- | --- | --- | --- | --- | --- | --- | --- | --- | --- | --- |
| CCCCCC(=O)NCCCC[C@H](NC(=O)[C@H](CCCCN)NC(=O)[C@H](CCCCN)NC(=O)[C@H](Cc1ccccc1)NC(=O)[C@H](CC(C)C)NC(=O)[C@H](CCCCN)NC(=O)[C@H](CCCCN)NC(C)=O)C(=O)N[C@@H](CC(C)C)C(=O)N[C@@H](CCCCN)C(=O)N[C@@H](Cc1ccc(O)cc1)C(=O)N[C@@H](CC(C)C)C(N)=O [BP374, Ac-KKLFKKK(COC5H11)LKYL-NH2] | 1.0 | 2.0 | 0.5 | 0.9 | 1.9 | 1.6 | 0.7 | 0.5 | 1.7 | 0.8 | 1.2 | 0.8 to 1.6 | >25 |  |  |
| CCCC(=O)NCCCC[C@H](NC(=O)[C@H](CCCCN)NC(C)=O)C(=O)N[C@@H](CC(C)C)C(=O)N[C@@H](Cc1ccccc1)C(=O)N[C@@H](CCCCN)C(=O)N[C@@H](CCCCN)C(=O)N[C@H](C(=O)N[C@@H](CC(C)C)C(=O)N[C@@H](CCCCN)C(=O)N[C@@H](Cc1ccc(O)cc1)C(=O)N[C@@H](CC(C)C)C(N)=O)[C@@H](C)CC [BP381, Ac-KK(COC3H7)LFKKILKYL-NH2] | 1.2 | 0.7 | 0.6 | 0.7 | 0.8 | 2.1 | 1.3 | 0.2 | 0.4 | 0.5 | 3.4 | 0.8 to 1.6 | 1.6 to 3.1 | one gene (Osm2, Tas14 or BCB) and Osm2 |  |
| CCCC(=O)NCCCC[C@H](NC(=O)[C@H](CCCCN)NC(=O)[C@H](Cc1ccccc1)NC(=O)[C@H](CC(C)C)NC(=O)[C@H](CCCCN)NC(=O)[C@H](CCCCN)NC(C)=O)C(=O)N[C@H](C(=O)N[C@@H](CC(C)C)C(=O)N[C@@H](CCCCN)C(=O)N[C@@H](Cc1ccc(O)cc1)C(=O)N[C@@H](CC(C)C)C(N)=O)[C@@H](C)CC [BP385, Ac-KKLFKK(COC3H7)ILKYL-NH2] | 4.2 | 0.2 | 0.7 | 2.3 | 1.1 | 1.2 | 1.7 | 3.2 | 7.1 | 1.0 | 0.7 | 1.6 to 3.1 | 6.2 to 12.5 | one gene (Osm2, Tas14 or BCB) |  |
| CCCC(=O)NCCCC[C@H](NC(=O)[C@H](CCCCN)NC(=O)[C@H](CC(C)C)NC(=O)[C@@H](NC(=O)[C@H](CCCCN)NC(=O)[C@H](CCCCN)NC(=O)[C@H](Cc1ccccc1)NC(=O)[C@H](CC(C)C)NC(=O)[C@H](CCCCN)NC(=O)[C@H](CCCCN)NC(C)=O)[C@@H](C)CC)C(=O)N[C@@H](CC(C)C)C(N)=O [BP389, Ac-KKLFKKILKK(COC3H7)L-NH2] | 2.1 | 0.1 | 0.3 | 0.9 | 1.2 | 1.0 | 0.5 | 0.3 | 2.8 | 0.5 | 0.7 | 1.6 to 3.1 | 6.2 to 12.5 | PinII and BCB | 2 |
| CCCCCC(=O)NCCCC[C@H](NC(=O)[C@H](CC(C)C)NC(=O)[C@H](CCCCN)NC(=O)[C@H](CCCCN)NC(C)=O)C(=O)N[C@@H](CCCCN)C(=O)N[C@@H](CCCCN)C(=O)N[C@H](C(=O)N[C@@H](CC(C)C)C(=O)N[C@@H](CCCCN)C(=O)N[C@@H](Cc1ccc(O)cc1)C(=O)N[C@@H](CC(C)C)C(N)=O)[C@@H](C)CC [BP371, Ac-KKLK(COC5H11)KKILKYL-NH2] | 1.0 | 0.9 | 0.5 | 0.9 | 1.1 | 0.9 | 0.6 | 0.7 | 1.7 | 0.8 | 0.7 | 0.8 to 1.6 | 3.1 to 6.2 |  |  |
| CCCC(=O)NCCCC[C@H](NC(=O)[C@H](Cc1ccc(O)cc1)NC(=O)[C@H](CCCCN)NC(=O)[C@H](CC(C)C)NC(=O)[C@@H](NC(=O)[C@H](CCCCN)NC(=O)[C@H](CCCCN)NC(=O)[C@H](Cc1ccccc1)NC(=O)[C@H](CC(C)C)NC(=O)[C@H](CCCCN)NC(=O)[C@H](CCCCN)NC(C)=O)[C@@H](C)CC)C(N)=O [BP390, Ac-KKLFKKILKYK(COC3H7)-NH2] | 0.6 | 0.7 | 0.6 | 0.5 | 1.2 | 3.0 | 0.9 | 0.2 | 0.2 | 0.7 | 1.0 | 0.8 to 1.6 | 6.2 to 12.5 | one gene (Osm2, Tas14 or BCB) |  |
